Our source for the Activity values is ChEMBL document CHEMBL3045014, “Synthesis and biological activity of novel anti-juvenile hormone agents” (J Pestic Sci, 2008).

The structures appear in SMILES notation. The source made the active and inactive calls. The rule behind the calls is not given here.

Assay type in all cases: functional, organism-based
The subject of assay [1] is Bombyx mori. The assay can be described thus: Induction of precocious metamorphosis in newly-molted fourth-instar larvae of Bombyx mori.
Assay [2] deals with Bombyx mori. In words: Induction of precocious metamorphosis in Bombyx mori.
Assay [3] deals with Bombyx mori. The assay can be described thus: Induction of precocious metamorphosis in fourth-instar larvae of Bombyx mori.
Assay [4] has as its system Bombyx mori. In words: Induction of precocious metamorphosis in 24-hr old 3rd-instar larvae of Bombyx mori.
Assay [5] concerns Bombyx mori. The assay can be described thus: Induction of precocious metamorphosis in fourth-instar larvae of Bombyx mori in presence of 20-hydroxyecdysone.
Assay [6] has as its system Bombyx mori. In words: Induction of precocious metamorphosis in fourth-instar larvae of Bombyx mori in presence of JH agonist methoprene.
Assay [7] deals with Bombyx mori. The assay can be described thus: Induction of precocious metamorphosis in newly-molted fourth-instar larvae of Bombyx mori at 1 ug.
Assay [8] relates to Bombyx mori. The assay can be described thus: Induction of precocious metamorphosis in fourth-instar larvae of Bombyx mori at 10 ug.
The subject of assay [9] is Bombyx mori. The assay can be described thus: Induction of precocious metamorphosis in fourth-instar larvae of Bombyx mori at 0.1 ug.
The subject of assay [10] is Bombyx mori. In words: Induction of precocious metamorphosis in fourth-instar larvae of Bombyx mori at 40 ug.

Turning to `CCCCC(COc1ccc(C(=O)OCC)cc1)Oc1ccccc1` (stereo not given), the result in the assay with Bombyx mori [1] and with Bombyx mori [2] was Active.

As for `CCCCC(COc1ccc(C(=O)OCC)cc1)Oc1ccc(C)nc1` (stereo not given), the outcome with Bombyx mori [1] and in the assay on Bombyx mori [2] was Active.

As for `CCOC(=O)c1ccc(OCC(CC)Oc2ccc(C)nc2)cc1` (stereo not given), the outcome in the assay on Bombyx mori [2] was Active.

`CCOC(=O)c1ccc(OCC(Oc2ccc(C)nc2)C(C)(C)C)cc1` (stereo not given): the outcome in the assay on Bombyx mori [2] was Active.

For the compound `CCOC(=O)c1ccc(OCC(CC)OC(=O)C(C)(C)C)cc1` (stereo not given), the outcome in the assay on Bombyx mori [1] and in the assay on Bombyx mori [4] was inactive. In addition, the result with Bombyx mori [3] was Active.

As to `CCCCC(COc1ccc(C(=O)OCC)cc1)Cc1ccccc1` (racemic), the result in the assay with Bombyx mori [5], with Bombyx mori [7], in the assay on Bombyx mori [3] and with Bombyx mori [2] was Active. Besides, the outcome in the assay with Bombyx mori [6] and in the assay with Bombyx mori [4] was inactive. Moreover, in the assay with Bombyx mori [1], the Activity entry is “Dose-dependent effect”.

Consider `CCCC[C@@H](COc1ccc(C(=O)OCC)cc1)Cc1ccccc1`, for which the result in the assay with Bombyx mori [8] and in the assay on Bombyx mori [10] was inactive. For the same compound, the result with Bombyx mori [9] and in the assay on Bombyx mori [7] was Active.

For the compound `CCCCCC(COc1ccc(C(=O)OCC)cc1)Cc1ccccc1` (stereo not given), in the assay with Bombyx mori [2], the outcome was Active.

As for `CCCC[C@H](COc1ccc(C(=O)OCC)cc1)Cc1ccccc1`, the outcome in the assay with Bombyx mori [8] and in the assay on Bombyx mori [10] was inactive. Further, the result with Bombyx mori [9] and in the assay with Bombyx mori [7] was Active.
